Structures are written as SMILES.

The target of this assay is T1, hα7-wt nAChR stably expressed in the GH4C1 cell line (Homo sapiens, UniProt P36544).
T1 construct: expressed in transfected cells
T1 sequence (P36544 23-502): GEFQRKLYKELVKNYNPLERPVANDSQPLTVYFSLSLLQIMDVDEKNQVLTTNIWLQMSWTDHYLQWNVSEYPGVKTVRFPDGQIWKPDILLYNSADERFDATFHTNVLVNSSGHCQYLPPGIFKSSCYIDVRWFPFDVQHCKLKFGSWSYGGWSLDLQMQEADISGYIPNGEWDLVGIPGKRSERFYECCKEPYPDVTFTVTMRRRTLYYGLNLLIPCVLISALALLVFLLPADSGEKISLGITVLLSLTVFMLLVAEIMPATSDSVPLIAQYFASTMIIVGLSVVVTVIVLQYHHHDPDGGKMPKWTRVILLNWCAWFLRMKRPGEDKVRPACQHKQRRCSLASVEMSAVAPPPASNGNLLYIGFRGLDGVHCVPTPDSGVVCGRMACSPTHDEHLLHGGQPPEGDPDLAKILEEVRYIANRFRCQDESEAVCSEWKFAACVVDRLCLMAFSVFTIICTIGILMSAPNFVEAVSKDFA
Nature of the assay: Ca2+ flux imaging (FLIPR) of PAM activity with choline as agonist. It counts as cell-based. Conditions: efficacy relative to 100 μM choline alone (defined as 1); peak fluorescence, fluo-4AM; compounds tested 0.1 μM to 30 μM, efficacy criterion at 10 μM. An excerpt: Stable expression in mammalian cells in general and rat GH4C1 cells in particular, of cDNA clones encoding the human α7 wild-type sequence (hα7-wt nAChR) and in which the coding region is placed downstream of a promoter results in the appearance of functional α7 nAChRs on the surface of the mammalian cells. This technique has provided a powerful means of assessing the function of α7 wild-type protein. Given the fact that the cation permeability of the α7 nicotinic receptor preferentially favours calcium, fluorescent imaging of Ca^2+ flux through the hα7-wt nAChR stably expressed in the GH4C1 cell line was used as a first means of assaying modulator activity of the compounds of the present invention.
a) Assay Buffer • Hanks buffered saline solution (HBSS, Invitrogen, Belgium), supplemented with 10 mM HEPES (Invitrogen, Belgium), CaCl2 to a final concentration of 5 mM, 0.1% Bovine serum albumin (Sigma-Aldrich NV, Belgium), 2.5 mM probenecid (Sigma-Aldrich NV, Belgium).
b) Calcium-Sensitive Dye—Fluo-4AM • Fluo-4AM (Molecular Probes, USA) was dissolved in DMSO containing 10% Pluronic acid (Molecular Probes, USA) to give a stock solution which was aliquoted and could be stored at −20° C. until later use. On the day of the experiment Fluo-4AM stock was defrosted and diluted in DMEM/F12 (Invitrogen, Belgium) containing 2.5 mM probenicid and 0.1% BSA to give a final concentration of 2 μM.
c) 96-well Plates • BD Biocoat poly-D-lysine 96-well black/clear bottom plates (BD Biosciences, Belgium)
d) Calcium Flux Measurement • A Fluorimetric Imaging Plate Reader (FLIPR, Molecular Devices Corporation, Sunnyvale, USA) was used to measure intracellular free-calcium flux signals
Monolayers of hα7-wt nAChR-expressing cells were grown in multi-well plates, in particular black-sided, transparent bottomed 96 well plates coated with poly-D-lysine for 24 hours prior to loading with a fluorescent calcium indicator, in a particular embodiment loading with fluo-3 or fluo-4AM for up to 90 minutes, in an even more particular embodiment loading with fluo-4AM for up to 90 minutes, and in a preferred embodiment loading with fluo-4AM for 60 minutes.
In a particular embodiment, the α7 nicotinic receptor agonist was choline, a more particular embodiment choline applied at a sub-maximal concentration of 100 μM.
A control response to choline was calculated on each plate from the difference in peak fluorescence in wells receiving either choline or assay buffer alone. Compounds of the present invention were tested at a concentration range from 0.1 μM to 30 μM.
The activity ranges are defined as follows; A denotes an activity range from 1.1 till 1.5, B denotes an activity range from 1.5 till 2.0, C denotes an activity range from 2.0 till 3.0, D denotes an activity range from 3.0 till 4.5 and E denotes an efficacy from at least 4.5.
For orientation: Calcium assays in cells follow changes in intracellular calcium, usually with a dye or a luminescent sensor.
As to `COc1cc(OC)c(Nc2nc(-c3ccc4c(c3)OCCO4)c(CC#N)s2)cc1Cl` [int. 20], the “Activity Range” value is given as “E (E denotes an efficacy from at least 4.5)”. Under `Cc1sc(Nc2ccc(Br)cc2)nc1-c1cccnc1` [Compound 137] stands “D (D denotes an activity range from 3.0 till 4.5)”. Under `COCc1nc(Nc2cccc(C(F)(F)F)c2)sc1C(=O)OC` [Compound 103] stands “E (E denotes an efficacy from at least 4.5)”. On to `COc1ccc(OC)c(-c2csc(Nc3ccccc3Cl)n2)c1` [Compound 43], for which the “Activity Range” value was “B (B denotes an activity range from 1.5 till 2.0)”. With `Clc1cccc(Nc2nc(-c3cnc4sccn34)cs2)c1` [Compound 61] the entry was “C (C denotes an activity range from 2.0 till 3.0)”.

As for `COc1ccc(-c2csc(Nc3cc(F)ccc3C)n2)c(OC)c1` [Compound 40], the “Activity Range” value was “C (C denotes an activity range from 2.0 till 3.0)”. Consider `COc1cc(OC)c(Nc2nc(-c3ccc(F)c(F)c3)c(CC(=O)N3CCCC3)s2)cc1Cl` [Compound 132], for which the “Activity Range” value is recorded as “E (E denotes an efficacy from at least 4.5)”. Under `COc1ccccc1Nc1nc(-c2ccccc2Cl)cs1` [Compound 42] stands “B (B denotes an activity range from 1.5 till 2.0)”; under `CCOC(=O)c1sc(Nc2cccc(C(F)(F)F)c2)nc1C1CC1` [Compound 145], “E (E denotes an efficacy from at least 4.5)”.

Regarding `O=C(Nc1cccnc1)c1sc(Nc2ccc(F)cc2)nc1-c1ccccc1` [Compound 169, 5-Thiazolecarboxamide, 2-[(4-fluorophenyl)amino]-4-phenyl-N-3-pyridinyl-], the “Activity Range” value is on record as “D (D denotes an activity range from 3.0 till 4.5)”.

With `FC(F)(F)c1cccc(Nc2nc(-c3cnc4ccccn34)cs2)c1` [Compound 56], the “Activity Range” value is “C (C denotes an activity range from 2.0 till 3.0)”.

Regarding `Nc1cncc(-c2csc(Nc3ccc(F)c(C(F)(F)F)c3)n2)c1` [Compound 10], the “Activity Range” value is given as “A (A denotes an activity range from 1.1 till 1.5)”. With `CCOC(=O)c1sc(Nc2ccc(OC)cc2)nc1C` [Compound 144] the entry was “E (E denotes an efficacy from at least 4.5)”. In the case of `CCOC(=O)c1sc(Nc2cccc(C(F)(F)F)c2)nc1C1CCCN(C(=O)OCc2ccccc2)C1` (stereo not drawn) [Compound 160], the “Activity Range” value was “E (E denotes an efficacy from at least 4.5)”. Under `Cc1cccc(Nc2nc(-c3cccnc3)c(Cl)s2)c1` [Compound 94] stands “D (D denotes an activity range from 3.0 till 4.5)”. Under `COc1ccc(OC)c(-c2csc(Nc3cccc4[nH]ncc34)n2)c1` [Compound 34] stands “C (C denotes an activity range from 2.0 till 3.0)”; under `CCOC(=O)c1sc(Nc2ccc(Cl)cc2Cl)nc1-c1ccccc1` [int. 6, 2-(2,4-Dichloro-phenylamino)-4-phenyl-thiazole-5-carboxylic acid ethyl ester], “E (E denotes an efficacy from at least 4.5)”; under `Cc1cc(Nc2nc(-c3cccnc3)c(F)s2)ccc1F` [Compound 83], “C (C denotes an activity range from 2.0 till 3.0)”.

For the compound `Cc1cccc(Nc2nc(-c3cnc4ccccn34)cs2)c1` [Compound 51], the “Activity Range” value is recorded as “C (C denotes an activity range from 2.0 till 3.0)”.

Take `COc1ccc(Nc2nc(-c3cnc4ccccn34)cs2)c(OC)c1` [Compound 50]: the “Activity Range” value is recorded as “D (D denotes an activity range from 3.0 till 4.5)”. With `Brc1ccc(Nc2nc(-c3cccnc3)cs2)cn1` [Compound 64] the entry was “D (D denotes an activity range from 3.0 till 4.5)”.

With `CC(C)c1nc(Nc2cccc(C(F)(F)F)c2)sc1CO` [Compound 116], the “Activity Range” value is listed as “E (E denotes an efficacy from at least 4.5)”. Under `Cc1cc(Nc2nc(-c3cccnc3)cs2)ccc1F` [Compound 78] stands “B (B denotes an activity range from 1.5 till 2.0)”.

For `OCc1sc(Nc2ccc(F)c(C(F)(F)F)c2)nc1-c1ccncc1` [Compound 89], the “Activity Range” value was “E (E denotes an efficacy from at least 4.5)”. Take `FC(F)(F)c1ccc(Nc2nc(-c3cccnc3)cs2)cn1` [Compound 65]: the “Activity Range” value is “C (C denotes an activity range from 2.0 till 3.0)”. With `COc1cc(OC)c(Nc2nc(-c3ccncc3)c(CC(=O)N3CCCC3)s2)cc1Cl` [Compound 135] the entry was “E (E denotes an efficacy from at least 4.5)”; with `CSc1cccc(Nc2nc(-c3cccnc3)c(C)s2)c1` [Compound 141], “C (C denotes an activity range from 2.0 till 3.0)”; with `COc1cc(OC)c(Nc2nc(-c3ccncc3)c(CN3CCOCC3)s2)cc1Cl` [Compound 100], “D (D denotes an activity range from 3.0 till 4.5)”. Regarding `Cc1cc(C(=O)NCc2sc(Nc3cccc(C(F)(F)F)c3)nc2-c2cccnc2)no1` [Compound 108, 5-methyl-N-[[4-(3-pyridinyl)-2-[[3-(trifluoromethyl)phenyl]amino]-5-thiazolyl]methyl]-3-isoxazolecarboxamide], the “Activity Range” value is recorded as “E (E denotes an efficacy from at least 4.5)”. With `COc1ccc(OC)c(-c2csc(Nc3cc(F)ccc3C)n2)c1` [Compound 33] the entry was “D (D denotes an activity range from 3.0 till 4.5)”; with `COc1ccc(Nc2nc(C(F)(F)F)c(CO)s2)cc1` [Compound 118], “E (E denotes an efficacy from at least 4.5)”; with `N#CCc1sc(Nc2cccc(C(F)(F)F)c2)nc1-c1ccc(Cl)cc1Cl` [Compound 23, [4-(2,4-Dichloro-phenyl)-2-(3-trifluoromethyl-phenylamino)-thiazol-5-yl]-acetonitrile], “D (D denotes an activity range from 3.0 till 4.5)”. As for `Cc1ccc(Nc2nc(-c3cccnc3)c(C)s2)cc1` [Compound 138], the “Activity Range” value is “E (E denotes an efficacy from at least 4.5)”. With `COc1ccc(-c2csc(Nc3ccccc3OC)n2)c(OC)c1` [Compound 38] the entry was “D (D denotes an activity range from 3.0 till 4.5)”; with `CCCc1nc(Nc2ccc(OC)cc2)sc1C(=O)OCC` [Compound 102], “E (E denotes an efficacy from at least 4.5)”. Under `CNC(=O)c1sc(Nc2cc(Cl)c(OC)cc2OC)nc1-c1ccc(F)c(F)c1` [Compound 107, 2-[(5-chloro-2,4-dimethoxyphenyl)amino]-4-(3,4-difluorophenyl)-N-methyl-5-thiazolecarboxamide] stands “E (E denotes an efficacy from at least 4.5)”; under `Fc1ccc(Nc2nc(-c3cccnc3)c(Br)s2)cc1C(F)(F)F` [Compound 84], “C (C denotes an activity range from 2.0 till 3.0)”; under `Brc1ccc(Nc2nc(-c3cnc4ccccn34)cs2)cc1` [Compound 58], “C (C denotes an activity range from 2.0 till 3.0)”. With `Fc1ccc(Nc2nc(-c3cccnc3)c(F)s2)cc1C(F)(F)F` [Compound 81] the entry was “C (C denotes an activity range from 2.0 till 3.0)”; with `Fc1cncc(-c2csc(Nc3ccc(F)c(C(F)(F)F)c3)n2)c1` [Compound 5], “D (D denotes an activity range from 3.0 till 4.5)”; with `CCOC(=O)c1sc(Nc2ccc(OC)cc2)nc1C1CC1` [Compound 146], “E (E denotes an efficacy from at least 4.5)”. As to `COCc1nc(Nc2cc(Cl)ccc2Cl)sc1C(=O)OC` [Compound 140], the “Activity Range” value was “E (E denotes an efficacy from at least 4.5)”.

For the compound `NC(=O)Cc1sc(Nc2cccc(C(F)(F)F)c2)nc1-c1ccc(Cl)cc1Cl` [Compound 18, 2-[4-(2,4-Dichloro-phenyl)-2-(3-trifluoromethyl-phenylamino)-thiazol-5-yl]-acetamide], the “Activity Range” value is “B (B denotes an activity range from 1.5 till 2.0)”.

For the compound `CSc1cccc(Nc2nc(-c3cnc4ccccn34)cs2)c1` [Compound 52], the “Activity Range” value is listed as “C (C denotes an activity range from 2.0 till 3.0)”.

In the case of `O=C(Nc1cccnc1)c1sc(Nc2ccccc2)nc1-c1ccccc1` [Compound 171, 5-Thiazolecarboxamide, 4-phenyl-2-(phenylamino)-N-3-pyridinyl-], the “Activity Range” value is “E (E denotes an efficacy from at least 4.5)”.

For the origin of these results see patent US9388175B2, “2-aniline-4-aryl substituted thiazole derivatives” (Janssen Pharmaceutica N.V., priority 2005, dated 2016).
